The source of these data is patent publication US20180298344A1, “Realistic Humanized Model of Disease Matrix Environment for Evaluation of Therapeutic Reversal or Cell Fate” (Yale University, priority 2017, published 2018).

One assay deals with fibrosis in mouse models. Conditions: in vivo mouse models; cited from earlier work.
For assay [1], the system named is human microvascular pericytes (PC). The experiment in a line: PC on high stiffness polyacrylamide hydrogels treated with CCG-1423; α-SMA by flow cytometry, F-Actin staining. The assay is classed as cell-based. Conditions: for detectable quantities of α-SMA: high-stiffness hydrogels, versus naive PC; for detectable quantities of α-SMA / decrease in expression of α-SMA: flow cytometry; for decrease in expression of α-SMA: 1.0 nM. Here is the method: (§1) Human microvascular PC were isolated from a readily available and nearly inexhaustible source, human placental tissue, by microvascular segment explant outgrowth (Sava et al., Microcirculation, 2015, 22:54-67; Ayres-Sander et al., PLoS One, 2013, 8:e60025; Lauridsen et al., FASEB, 2014, 28:1166-1180; Maier et al., Microcirculation, 2010, 17:367-380). Human placental tissue was segmented, digested with collagenase, and the resulting cells were cultured in M199 (Gibco, Grand Island, NY, USA) medium supplemented with 20% FBS (Hyclone Laboratories, Logan, Utah, USA), and 1% penicillin-streptomycin (Gibco). Isolated pericytes were screened by flow cytometry against NG2 (H-300, Santa Cruz Biotechnology), CD90 (K-15, Santa Cruz), CD146 (P1H12, Biolegend, San Diego, Calif., USA), PDGFR-β (18A2, Santa Cruz), α-SMA (1A4, Santa Cruz), SMMHC (N-16, Santa Cruz), CD31 (C20, Santa Cruz), CD34 (581, Sigma) and CD45 (MEM-28, Sigma). As negative control, PC were incubated with isotype matched IgG. Samples were run on a Stratedigm S1000EXi Flow Cytometer (Stratedigm, San Jose, Calif. USA) and analyzed with FlowJo software (Tree Star, Ashland, Oreg., USA).
(§2) Polyacrylamide hydrogels were prepared as previously described (Tse and Engler, Current protocols in cell biology, editorial board, Juan S. Bonifacino et al, 2010, Chapter 10, Unit 10-16). Briefly, amino-silanated coverslips were prepared by treatment with 0.1M NaOH, followed by 3-aminopropyltriethoxysilane (Sigma), and crosslinked with glutaraldehyde. Chloro-silanated coverslips were treated with dichlorodimethylsilane (Sigma). Polyacrylamide solutions of varying stiffness were prepared by altering the concentrations of acrylamide (Bio-Rad, Hercules, Calif., USA) and bis-acrylamide (Bio-Rad). Ammonium persulfate (Sigma) and tetramethylethylenediamine (Bio-Rad) were used as cross-linkers. The solution was placed between the chloro-silanated and amino-silanated coverslips and cross-linked under ambient lighting for 30 minutes, after which the amino-silanated slide, containing the hydrogel, was hydrated in PBS. The ECM components were chemically conjugated to the polyacrylamide hydrogel using the naturally occurring amine residues on the proteins. Sulfa-SANPAH (Thermo Fisher, Grand Island, N.Y., USA) was added in 50 mM 4-(2-hydroxyethyl)-1-piperazineethanesulfonic acid buffer (Sigma) and the hydrogels were placed under UV light (365 nm, 10 mW/cm^2) for 15 minutes, and incubated overnight with either 0.5 mg/mL solubilized healthy or IPF human lung ECM, or isolated ECM proteins (0.1 mg/mL human plasma fibronectin (Millipore, Billerica, Mass., USA) and 0.1 mg/mL collagen I (Sigma). Validation of protein conjugation was performed by tagging ECM with NHS-Fluorescein (5/6-carboxyfluorescein succinimidyl ester), dialyzing overnight, and rinsed extensively (Syed et al., J Vis, Exp, 2015, 97).
(§3) For short term (7 day) differentiation studies, PC (passage 3-7) were seeded on healthy or IPF lung tissue slices, polyacrylamide hydrogels, or 25 mm glass coverslips (VWR) at 100×10^3 cells per sample and activated with control media (non-activated), or 1 ng/mL TGF-β1 (PeproTech, Rocky Hill, N.J., USA) for 7 days (18, 19). For bleomycin activation, the cells were activated with 1 μg/mL bleomycin sulfate (Cayman Chemical, Ann Arbor, Mich.) for 1 day and the media was replaced with non-activated media for the remaining 6 days (Sava et al., Microcirculation, 2015, 22:54-67; Sterling et al., J Bio Chem, 1983, 258:14438-14444). […]

Assay [2] concerns idiopathic pulmonary fibrosis patients. The conditions noted are these: IPF patients; cited from earlier work.
Assay [3] deals with human microvascular pericytes (PC). The experiment in a line: Short term (7 day) myofibroblast differentiation of PC on low, medium, high stiffness hydrogels with TGF-β1 or bleomycin activation. The assay is classed as cell-based. The conditions noted are these: 7 days. Here is the method: as §1, §2
as §3, with “258:14438-14444). TGF-β1 and bleomycin concentrations were based on reports consistent with activation of fibroblasts (Sava et al., Microcirculation, 2015, 22:54-67; Maroni and Davis, Bio Reprod, 2012, 87:127). Treatment with CCG-1423 (Sigma) was performed at day 0 for the full 7 days, and labeled as early treatment, or at day 7 and performed for 7 days, and labeled as late treatment.” for “258:14438-14444).”

Where [4] appears, read: low, medium, high stiffness hydrogels with fibronectin and collagen I, TGF-β1 1 ng/mL 7 days or bleomycin 1 μg/mL 1 day, flow cytometry.

For the compound `CC(ONC(=O)c1cc(C(F)(F)F)cc(C(F)(F)F)c1)C(=O)Nc1ccc(Cl)cc1` (stereo not shown) [CCG-1423], the prevention of fibrosis result in the assay with fibrosis in mouse models is reported as “effective in preventing fibrosis”. Also, the “detectable quantities of α-SMA” value in assay [1] (CCG-1423 treatment at day 0 of PC culture, P<0.001) is given as “significantly reduced”; in assay [1] (CCG-1423 treatment at day 7 of PC culture, P=0.039), “significantly reduced”. In assay [1] (F-Actin staining, high stiffness hydrogel), the “cell F-Actin architecture” value was “did not alter”. For the same compound, the “decrease in expression of α-SMA” value came to 38.2±4.2% in assay [1] (early time-point (day 0) treatment for 7 days, high stiffness hydrogel) and 20.4±8.0% in assay [1] (late time point (day 7) treatment for additional 7 days, high stiffness hydrogel).
Consider `Cc1ccc(=O)n(-c2ccccc2)c1` [pirfenidone], for which the “decline in forced vital capacity” value in assay [2] is on record as “reducing the decline in forced vital capacity”.
For the compound bleomycin sulfate, in assay [3] (setting [4]), the “vimentin expression compared to non-activated PC on substrates of the same stiffness” value is on record as “significantly increased” and the “α-SMA expression compared to non-activated PC on substrates of the same stiffness” value is reported as “significantly increased”. Further, the “cell area and elongation (aspect ratio)” value in assay [3] (medium and high stiffness substrates) was “largest area and elongation”.
